Values of other authors as cited in patent US6818658B2, “Acylated piperidine derivatives as melanocortin-4 receptor agonists” (Merck & Co., Inc., priority 2001, dated 2004).

Experiments:
[1] = injected intramuscularly or subcutaneously, males with psychogenic erectile dysfunction
[2] = patients

## Ac-Nle-c[Asp-His-DPhe-Arg-Trp-Lys]-NH2 [MT-II]
[1]
  response rate: 75%

## Cc1ccc(N(CC2=NCCN2)c2cccc(O)c2)cc1 [phentolamine]
[2]
  duration of effect: 2 h
[2]; for sildenafil after an oral dose
  onset of action: 5 to 30 min
